Laboratory results from ChEMBL document CHEMBL4800722, “Data for DCP probe BI 605906” (2021).

Assays:
[1] = target: Mitogen-activated protein kinase 9 (Homo sapiens) (UniProt P45984); details: Compound concentration 1.0 uM
[2] = target: Atypical kinase COQ8A, mitochondrial (Homo sapiens) (UniProt Q8NI60); experiment: ADCK3 Invitrogen Lab (UK) kinase screen (BI); details: Compound concentration 1.0 uM
[3] = target: Cyclin-dependent kinase 14 (Homo sapiens) (UniProt O94921); experiment: CDK14 (PFTK1)/CYC Invitrogen Lab (UK) kinase screen (BI); details: Compound concentration 1.0 uM
[4] = target: Tyrosine-protein kinase ZAP-70 (Homo sapiens) (UniProt P43403); details: Compound concentration 1.0 uM
[5] = target: D(3) dopamine receptor (Homo sapiens) (UniProt P35462); details: Compound concentration 10.0 uM
Chain of D(3) dopamine receptor (Homo sapiens) (P35462 whole entry): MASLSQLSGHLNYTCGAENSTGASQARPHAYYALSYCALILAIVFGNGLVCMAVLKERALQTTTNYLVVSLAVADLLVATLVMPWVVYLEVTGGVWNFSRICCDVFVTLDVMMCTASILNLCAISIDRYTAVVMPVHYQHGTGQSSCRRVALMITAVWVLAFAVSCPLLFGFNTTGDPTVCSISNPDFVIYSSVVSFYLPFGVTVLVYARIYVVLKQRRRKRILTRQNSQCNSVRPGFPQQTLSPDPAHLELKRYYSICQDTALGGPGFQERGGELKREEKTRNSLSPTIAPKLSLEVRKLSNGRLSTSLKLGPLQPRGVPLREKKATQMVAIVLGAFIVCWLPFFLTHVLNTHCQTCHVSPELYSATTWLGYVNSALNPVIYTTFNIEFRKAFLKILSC

[6] = target: Ephrin type-A receptor 5 (Homo sapiens) (UniProt P54756); details: Compound concentration 1.0 uM
[7] = target: Mitogen-activated protein kinase 1 (Homo sapiens) (UniProt P28482); experiment: MAPK2ERK2 DUNDEE kinase screen (BI); details: Mus musculus; Compound concentration 10.0 uM
Chain of Mitogen-activated protein kinase 1 (Homo sapiens) (P28482 whole entry): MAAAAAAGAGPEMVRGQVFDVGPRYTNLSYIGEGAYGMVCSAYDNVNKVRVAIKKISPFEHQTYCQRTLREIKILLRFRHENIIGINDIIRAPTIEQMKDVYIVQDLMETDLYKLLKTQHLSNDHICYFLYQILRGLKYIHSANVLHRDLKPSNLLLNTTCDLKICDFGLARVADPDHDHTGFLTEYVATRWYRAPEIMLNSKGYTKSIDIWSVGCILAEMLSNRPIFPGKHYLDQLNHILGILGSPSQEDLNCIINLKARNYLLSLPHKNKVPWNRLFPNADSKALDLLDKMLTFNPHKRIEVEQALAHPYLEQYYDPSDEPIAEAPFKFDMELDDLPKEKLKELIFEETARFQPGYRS

[8] = target: Calcium/calmodulin-dependent protein kinase type 1 (Homo sapiens) (UniProt Q14012); details: Compound concentration 1.0 uM
[9] = target: AMPK alpha1/beta2/gamma1 (Homo sapiens) (UniProt O43741+P54619+Q13131); details: Compound concentration 1.0 uM
[10] = target: Ribosomal protein S6 kinase alpha-4 (Homo sapiens) (UniProt O75676); details: Compound concentration 1.0 uM
Chain of Ribosomal protein S6 kinase alpha-4 (Homo sapiens) (O75676 whole entry, looked up): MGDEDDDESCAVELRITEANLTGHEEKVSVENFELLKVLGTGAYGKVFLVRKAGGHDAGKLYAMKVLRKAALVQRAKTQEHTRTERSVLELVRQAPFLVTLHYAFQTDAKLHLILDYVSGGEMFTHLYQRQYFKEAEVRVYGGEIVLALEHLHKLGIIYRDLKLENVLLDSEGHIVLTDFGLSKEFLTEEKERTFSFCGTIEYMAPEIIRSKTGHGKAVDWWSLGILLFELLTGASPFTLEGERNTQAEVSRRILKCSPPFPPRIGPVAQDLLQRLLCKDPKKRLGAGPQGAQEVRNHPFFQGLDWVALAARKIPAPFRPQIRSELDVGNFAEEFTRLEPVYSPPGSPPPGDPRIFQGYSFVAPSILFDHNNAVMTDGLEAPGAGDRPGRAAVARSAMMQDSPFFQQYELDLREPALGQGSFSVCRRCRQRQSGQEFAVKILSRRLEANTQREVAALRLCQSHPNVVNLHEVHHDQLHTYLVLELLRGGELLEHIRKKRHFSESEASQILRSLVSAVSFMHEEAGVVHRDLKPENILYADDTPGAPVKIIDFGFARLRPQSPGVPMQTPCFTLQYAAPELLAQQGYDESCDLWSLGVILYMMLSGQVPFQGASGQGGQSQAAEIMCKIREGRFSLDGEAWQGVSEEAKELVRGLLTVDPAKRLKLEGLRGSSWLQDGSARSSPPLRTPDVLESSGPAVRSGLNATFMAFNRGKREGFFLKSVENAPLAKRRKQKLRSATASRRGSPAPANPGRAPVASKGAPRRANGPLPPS

[11] = target: Ribosomal protein S6 kinase beta-2 (Homo sapiens) (UniProt Q9UBS0); experiment: RPS6KB2 (P70S6KB) Invitrogen Lab (UK) kinase screen (BI); details: Compound concentration 1.0 uM
[12] = target: Calcium/calmodulin-dependent protein kinase kinase 2 (Homo sapiens) (UniProt Q96RR4); details: Compound concentration 1.0 uM
[13] = target: SRSF protein kinase 1 (Homo sapiens) (UniProt Q96SB4); experiment: SRPK1 DUNDEE kinase screen (BI); details: Compound concentration 10.0 uM
[14] = target: Histamine H4 receptor (Homo sapiens) (UniProt Q9H3N8); details: Compound concentration 10.0 uM
[15] = target: Serine/threonine-protein kinase DCLK2 (Homo sapiens) (UniProt Q8N568); details: Compound concentration 1.0 uM
[16] = target: High affinity nerve growth factor receptor (Homo sapiens) (UniProt P04629); experiment: NTRK1 Invitrogen Lab (UK) kinase screen (BI)
Chain of High affinity nerve growth factor receptor (Homo sapiens) (P04629 33-796 limits assumed): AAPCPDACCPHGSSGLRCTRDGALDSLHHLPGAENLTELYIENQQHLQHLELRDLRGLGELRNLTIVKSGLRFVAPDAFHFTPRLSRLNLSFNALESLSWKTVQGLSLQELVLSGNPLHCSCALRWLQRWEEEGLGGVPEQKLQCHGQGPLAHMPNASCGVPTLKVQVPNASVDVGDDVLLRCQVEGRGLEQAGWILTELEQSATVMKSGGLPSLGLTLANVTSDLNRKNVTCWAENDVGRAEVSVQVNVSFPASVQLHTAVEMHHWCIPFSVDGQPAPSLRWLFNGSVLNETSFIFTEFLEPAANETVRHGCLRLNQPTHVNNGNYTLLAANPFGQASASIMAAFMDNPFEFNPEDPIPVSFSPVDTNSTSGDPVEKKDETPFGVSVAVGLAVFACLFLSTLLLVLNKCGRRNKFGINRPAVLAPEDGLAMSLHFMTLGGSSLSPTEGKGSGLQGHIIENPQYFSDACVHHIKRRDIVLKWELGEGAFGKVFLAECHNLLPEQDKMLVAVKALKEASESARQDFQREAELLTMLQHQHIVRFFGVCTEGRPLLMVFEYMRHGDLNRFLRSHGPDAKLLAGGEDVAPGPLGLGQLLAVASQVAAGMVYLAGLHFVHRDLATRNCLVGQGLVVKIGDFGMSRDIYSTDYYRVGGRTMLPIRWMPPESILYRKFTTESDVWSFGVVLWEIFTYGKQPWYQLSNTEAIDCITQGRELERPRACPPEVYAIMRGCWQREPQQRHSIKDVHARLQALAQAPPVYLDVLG

[17] = target: Phosphorylase b kinase gamma catalytic chain, testis/liver isoform (Homo sapiens) (UniProt P15735)
Chain of Phosphorylase b kinase gamma catalytic chain, testis/liver isoform (Homo sapiens) (P15735 whole entry, looked up, canonical isoform): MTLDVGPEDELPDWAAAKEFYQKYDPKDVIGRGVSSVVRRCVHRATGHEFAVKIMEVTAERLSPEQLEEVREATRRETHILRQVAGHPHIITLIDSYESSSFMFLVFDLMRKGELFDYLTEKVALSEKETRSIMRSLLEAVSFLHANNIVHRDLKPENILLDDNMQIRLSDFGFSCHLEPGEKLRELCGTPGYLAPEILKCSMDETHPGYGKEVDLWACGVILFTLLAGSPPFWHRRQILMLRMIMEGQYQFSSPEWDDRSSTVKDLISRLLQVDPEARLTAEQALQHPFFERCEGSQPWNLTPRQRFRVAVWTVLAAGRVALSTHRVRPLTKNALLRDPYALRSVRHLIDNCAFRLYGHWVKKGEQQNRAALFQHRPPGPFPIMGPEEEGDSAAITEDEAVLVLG

[18] = target: D(2) dopamine receptor (Homo sapiens) (UniProt P14416); details: Compound concentration 10.0 uM
[19] = target: Homeodomain-interacting protein kinase 2 (Homo sapiens) (UniProt Q9H2X6); experiment: HIPK2 Invitrogen Lab (UK) kinase screen (BI); details: Compound concentration 1.0 uM
[20] = target: Cyclin-dependent kinase 2/cyclin A (Homo sapiens) (UniProt P24941+P20248+P78396); experiment: CDK2/CYCLINA DUNDEE kinase screen (BI); assay type: protein-complex assay; details: Compound concentration 10.0 uM
[21] = target: Mitogen-activated protein kinase 1 (Homo sapiens) (UniProt P28482)
[22] = target: Tyrosine-protein kinase JAK3 (Homo sapiens) (UniProt P52333)
Chain of Tyrosine-protein kinase JAK3 (Homo sapiens) (P52333 whole entry): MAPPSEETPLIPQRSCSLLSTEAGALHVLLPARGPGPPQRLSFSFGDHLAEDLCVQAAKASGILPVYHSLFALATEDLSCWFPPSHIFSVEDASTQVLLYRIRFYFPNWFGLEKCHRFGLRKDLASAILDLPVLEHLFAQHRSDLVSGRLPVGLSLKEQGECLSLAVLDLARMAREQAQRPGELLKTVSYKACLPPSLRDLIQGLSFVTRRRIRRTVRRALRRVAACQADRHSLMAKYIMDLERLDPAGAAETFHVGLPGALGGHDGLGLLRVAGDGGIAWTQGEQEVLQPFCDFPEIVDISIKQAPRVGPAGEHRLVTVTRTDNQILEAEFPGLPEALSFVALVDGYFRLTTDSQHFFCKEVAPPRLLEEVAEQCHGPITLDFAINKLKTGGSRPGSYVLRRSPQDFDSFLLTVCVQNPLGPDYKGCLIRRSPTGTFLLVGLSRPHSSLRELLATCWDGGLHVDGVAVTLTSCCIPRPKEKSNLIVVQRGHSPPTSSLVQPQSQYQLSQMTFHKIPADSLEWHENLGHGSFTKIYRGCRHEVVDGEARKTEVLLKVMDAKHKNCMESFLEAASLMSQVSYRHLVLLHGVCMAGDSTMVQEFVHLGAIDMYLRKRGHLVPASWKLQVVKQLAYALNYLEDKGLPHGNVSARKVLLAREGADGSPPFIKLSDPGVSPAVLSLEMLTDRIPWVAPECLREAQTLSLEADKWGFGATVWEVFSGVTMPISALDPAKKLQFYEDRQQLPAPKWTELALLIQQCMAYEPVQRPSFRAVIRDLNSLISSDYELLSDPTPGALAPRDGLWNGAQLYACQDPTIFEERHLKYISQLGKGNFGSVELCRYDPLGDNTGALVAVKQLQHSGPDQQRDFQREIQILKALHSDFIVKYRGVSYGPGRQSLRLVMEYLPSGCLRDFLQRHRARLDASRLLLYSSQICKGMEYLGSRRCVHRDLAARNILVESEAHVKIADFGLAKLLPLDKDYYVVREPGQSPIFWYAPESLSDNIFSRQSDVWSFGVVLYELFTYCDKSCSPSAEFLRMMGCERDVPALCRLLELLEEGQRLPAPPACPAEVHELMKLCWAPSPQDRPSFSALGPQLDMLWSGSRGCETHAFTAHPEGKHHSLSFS

[23] = target: Protein kinase C alpha type (Homo sapiens) (UniProt P17252); experiment: PRKCA Invitrogen Lab (UK) kinase screen (BI); details: Compound concentration 1.0 uM
[24] = target: Phosphatidylinositol 4-kinase type 2-alpha (Homo sapiens) (UniProt Q9BTU6); details: Compound concentration 1.0 uM
[25] = target: Tyrosine-protein kinase Fgr (Homo sapiens) (UniProt P09769); experiment: FGR Invitrogen Lab (UK) kinase screen (BI); details: Compound concentration 1.0 uM
[26] = target: Dual specificity tyrosine-phosphorylation-regulated kinase 2 (Homo sapiens) (UniProt Q92630); experiment: DYRK2 Invitrogen Lab (UK) kinase screen (BI); details: Compound concentration 1.0 uM
[27] = target: Mitogen-activated protein kinase kinase kinase kinase 2 (Homo sapiens) (UniProt Q12851); details: Compound concentration 1.0 uM
[28] = target: Serine/threonine-protein kinase WNK2 (Homo sapiens) (UniProt Q9Y3S1); experiment: WNK2 Invitrogen Lab (UK) kinase screen (BI); details: Compound concentration 1.0 uM
[29] = target: Tyrosine-protein kinase Lyn (Homo sapiens) (UniProt P07948); experiment: LYN B Invitrogen Lab (UK) kinase screen (BI); details: Compound concentration 1.0 uM
[30] = target: Ankyrin repeat and protein kinase domain-containing protein 1 (Homo sapiens) (UniProt Q8NFD2); details: Compound concentration 1.0 uM
[31] = target: Proto-oncogene tyrosine-protein kinase Src (Homo sapiens) (UniProt P12931); experiment: SRC DUNDEE kinase screen (BI); details: Gallus gallus; Compound concentration 10.0 uM
[32] = target: Misshapen-like kinase 1 (Homo sapiens) (UniProt Q8N4C8); details: Compound concentration 1.0 uM
[33] = target: PI3-kinase p110-delta/p85-alpha (Homo sapiens) (UniProt P27986+O00329); details: Compound concentration 1.0 uM
[34] = target: cAMP-dependent protein kinase catalytic subunit alpha (Homo sapiens) (UniProt P17612)
[35] = target: CDK3/Cyclin E (Homo sapiens) (UniProt P24864+Q00526); experiment: CDK3/CYCLIN E1 Invitrogen Lab (UK) kinase screen (BI); assay type: protein-complex assay; details: Compound concentration 1.0 uM
[36] = target: Inhibitor of nuclear factor kappa-B kinase subunit epsilon (Homo sapiens) (UniProt Q14164)
Chain of Inhibitor of nuclear factor kappa-B kinase subunit epsilon (Homo sapiens) (Q14164 whole entry): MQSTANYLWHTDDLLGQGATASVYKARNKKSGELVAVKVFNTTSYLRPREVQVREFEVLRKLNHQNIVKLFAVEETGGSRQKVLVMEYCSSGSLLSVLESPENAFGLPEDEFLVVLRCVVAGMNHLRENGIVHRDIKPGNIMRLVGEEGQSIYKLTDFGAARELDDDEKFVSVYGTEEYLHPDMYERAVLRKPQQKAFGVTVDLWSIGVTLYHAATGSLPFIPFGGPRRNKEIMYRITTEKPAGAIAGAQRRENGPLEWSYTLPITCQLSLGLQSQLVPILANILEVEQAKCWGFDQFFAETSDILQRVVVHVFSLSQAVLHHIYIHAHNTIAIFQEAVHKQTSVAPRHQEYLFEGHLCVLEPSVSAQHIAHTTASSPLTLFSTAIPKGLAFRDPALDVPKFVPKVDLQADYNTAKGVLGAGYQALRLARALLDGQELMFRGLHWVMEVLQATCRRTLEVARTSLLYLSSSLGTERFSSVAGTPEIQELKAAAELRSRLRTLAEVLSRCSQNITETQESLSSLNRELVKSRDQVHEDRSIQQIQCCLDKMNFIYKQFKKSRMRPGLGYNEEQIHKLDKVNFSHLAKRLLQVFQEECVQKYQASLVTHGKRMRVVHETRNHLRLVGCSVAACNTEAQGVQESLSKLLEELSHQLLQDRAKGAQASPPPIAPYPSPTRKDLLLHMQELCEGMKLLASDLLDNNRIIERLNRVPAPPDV

[37] = target: Mitogen-activated protein kinase kinase kinase 3 (Homo sapiens) (UniProt Q99759); details: Compound concentration 1.0 uM
[38] = target: Cyclin-dependent kinase 4/cyclin D1 (Homo sapiens) (UniProt P11802+P24385); details: Compound concentration 1.0 uM
[39] = target: CDK17/Cyclin-Y (Homo sapiens) (UniProt Q00537+Q8ND76); experiment: CDK17/CYCLIN Y Invitrogen Lab (UK) kinase screen (BI); assay type: protein-complex assay; details: Compound concentration 1.0 uM
[40] = target: Cyclin-dependent kinase 9 (Homo sapiens) (UniProt P50750); details: Compound concentration 1.0 uM
[41] = target: Serine/threonine-protein kinase PAK 6 (Homo sapiens) (UniProt Q9NQU5); details: Compound concentration 1.0 uM
[42] = target: Activin receptor type-1B (Homo sapiens) (UniProt P36896)
Chain of Activin receptor type-1B (Homo sapiens) (P36896 whole entry): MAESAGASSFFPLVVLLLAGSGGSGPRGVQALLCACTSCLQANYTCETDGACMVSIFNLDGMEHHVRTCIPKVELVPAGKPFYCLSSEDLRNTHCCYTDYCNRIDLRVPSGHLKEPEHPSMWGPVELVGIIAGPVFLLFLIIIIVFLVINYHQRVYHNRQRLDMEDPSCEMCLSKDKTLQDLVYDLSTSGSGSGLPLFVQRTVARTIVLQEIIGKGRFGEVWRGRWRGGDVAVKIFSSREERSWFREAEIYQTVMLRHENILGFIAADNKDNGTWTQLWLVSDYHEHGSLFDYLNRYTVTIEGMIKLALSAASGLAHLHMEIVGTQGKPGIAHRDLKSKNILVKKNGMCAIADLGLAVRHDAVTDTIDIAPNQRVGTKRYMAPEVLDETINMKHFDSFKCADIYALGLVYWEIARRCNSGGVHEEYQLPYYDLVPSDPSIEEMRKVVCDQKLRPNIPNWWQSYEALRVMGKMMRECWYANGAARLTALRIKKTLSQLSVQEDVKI

Structure (SMILES): CCC(F)(F)c1cc(N2CCC(S(C)(=O)=O)CC2)nc2sc(C(N)=O)c(N)c12 [BI-605906]
- residual activity [1]: 98%
- residual activity [2]: 67%
- residual activity [3]: 70%
- residual activity [4]: 95%
- inhibition [5]: 51.5%
- residual activity [6]: 94%
- residual activity [7]: 90.1%
- residual activity [8]: 109%
- residual activity [9]: 91%
- residual activity [10]: 96%
- residual activity [11]: 86%
- residual activity [12]: 93%
- residual activity [13]: 73.3%
- inhibition [14]: -1.66%
- residual activity [15]: 101%
- residual activity ([16]; Compound concentration 1.0 uM): 81%
- residual activity ([16]; Compound concentration 10.0 uM): 83%
- residual activity ([17]; Compound concentration 1.0 uM): 99%
- residual activity ([17]; Compound concentration 10.0 uM): 97%
- inhibition [18]: 69.8%
- residual activity [19]: 81%
- residual activity [20]: 78%
- residual activity ([21]; Compound concentration 1.0 uM): 92%
- residual activity ([21]; Compound concentration 10.0 uM): 101%
- residual activity ([22]; Compound concentration 1.0 uM): 92%
- residual activity ([22]; Compound concentration 10.0 uM): 95%
- residual activity [23]: 85%
- residual activity [24]: 92%
- residual activity [25]: 78%
- residual activity [26]: 62%
- residual activity [27]: 99%
- residual activity [28]: 86%
- residual activity [29]: 78%
- residual activity [30]: 95%
- residual activity [31]: 73.8%
- residual activity [32]: 96%
- residual activity [33]: 87%
- residual activity ([34]; Compound concentration 1.0 uM): 98%
- residual activity ([34]; Compound concentration 10.0 uM): 71%
- residual activity [35]: 78%
- residual activity ([36]; Compound concentration 1.0 uM): 98%
- residual activity ([36]; Compound concentration 10.0 uM): 98%
- residual activity [37]: 98%
- residual activity [38]: 99%
- residual activity [39]: 88%
- residual activity [40]: 91%
- residual activity [41]: 105%
- residual activity ([42]; Compound concentration 1.0 uM): 96%
- residual activity ([42]; Compound concentration 10.0 uM): 105%
